Test results reported in patent US20120157499A1, “DELIVERY OF AN ACTIVE DRUG TO THE POSTERIOR PART OF THE EYE VIA SUBCONJUNCTIVAL OR PERIOCULAR DELIVERY OF A PRODRUG” (Allergan, Inc., priority 2003, published 2012).

Tests used:
[1] = Subconjunctival injection into a patient suffering from retinitis pigmentosa; type: in vivo; conditions: 1 mg in poly(lactide-co-glycolide) microsphere suspension, injected subconjunctivally
Experimental: A dose of tazarotene (1 mg) contained in the poly(lactide-co-glycolide) microsphere suspension of Example containing 1 is injected subconjunctivally into a patient suffering from retinitis pigmentosa.
A dose of all-trans retinyl palmitate (1 mg) contained in the poly(lactide-co-glycolide) microsphere suspension of Example containing 1 is injected subconjunctivally into a patient suffering from retinitis pigmentosa.

[2] = Subconjunctival injection into a patient suffering from proliferative vitreal retinopathy; type: in vivo; conditions: 1 mg in poly(lactide-co-glycolide) microsphere suspension, injected subconjunctivally
Experimental: A dose of tazarotene (1 mg) contained in the poly(lactide-co-glycolide) microsphere suspension of Example containing 1 is injected subconjunctivally into a patient suffering from proliferative vitreal retinopathy.

RARα = target: T1, RARα (Homo sapiens, UniProt P10276); assay: RARα receptor binding assay, competition with [3H] retinoic acid; conditions: Baculovirus-expressed receptor; Kd from IC50 by Cheng-Prussof; mean and standard deviation; read-out: receptor affinity (KD), RARα
T1 construct: made in house
T1 sequence (P10276 1-462): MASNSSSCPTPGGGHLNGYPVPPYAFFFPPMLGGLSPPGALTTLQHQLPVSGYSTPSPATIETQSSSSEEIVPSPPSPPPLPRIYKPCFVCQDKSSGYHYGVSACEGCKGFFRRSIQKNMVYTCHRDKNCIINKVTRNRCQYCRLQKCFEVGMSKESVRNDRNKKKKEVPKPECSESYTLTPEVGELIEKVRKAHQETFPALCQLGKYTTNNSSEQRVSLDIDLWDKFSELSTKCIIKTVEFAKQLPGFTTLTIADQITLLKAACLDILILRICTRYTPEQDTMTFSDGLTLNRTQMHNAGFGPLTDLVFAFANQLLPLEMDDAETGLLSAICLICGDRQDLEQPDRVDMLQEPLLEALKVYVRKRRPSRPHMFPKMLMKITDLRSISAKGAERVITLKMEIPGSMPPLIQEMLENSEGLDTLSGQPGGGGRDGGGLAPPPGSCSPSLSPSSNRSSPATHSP
Experimental: All binding assays were performed in a similar fashion.
All receptor binding assays were performed in the same manner. […] Incubations were carried out at 4° C. until equilibrium was achieved. Non-specific binding was defined as that binding remaining in the presence of 1000 nM of the appropriate unlabeled retinoic acid isomer. […] The mixture was vortexed and incubated for 10 minutes at 4° C., centrifuged and the supernatant removed. The hydroxyapitite was washed three more times with the appropriate wash buffer. The receptor-ligand complex was adsorbed by the hydroxyapitite. The amount of receptor-ligand complex was determined by liquid scintillation counting of hydroxyapitite pellet.
(§1) After correcting for non-specific binding, IC50 values were determined. […] The IC50 value was determined graphically from a loglogit plot of the data. The […] were determined by application of the Cheng-Prussof equation to the IC50 values, the labeled ligand concentration and the Kd of the labeled ligand.
The results of ligand binding assay are expressed in Kd numbers.

RARβ = target: T2, RARβ (Homo sapiens, UniProt P10826); assay: RARβ receptor binding assay, competition with [3H] retinoic acid; conditions: Baculovirus-expressed receptor; Kd from IC50 by Cheng-Prussof; mean and standard deviation; read-out: receptor affinity (KD), RARβ
T2 construct: made in house
T2 sequence (P10826 1-455): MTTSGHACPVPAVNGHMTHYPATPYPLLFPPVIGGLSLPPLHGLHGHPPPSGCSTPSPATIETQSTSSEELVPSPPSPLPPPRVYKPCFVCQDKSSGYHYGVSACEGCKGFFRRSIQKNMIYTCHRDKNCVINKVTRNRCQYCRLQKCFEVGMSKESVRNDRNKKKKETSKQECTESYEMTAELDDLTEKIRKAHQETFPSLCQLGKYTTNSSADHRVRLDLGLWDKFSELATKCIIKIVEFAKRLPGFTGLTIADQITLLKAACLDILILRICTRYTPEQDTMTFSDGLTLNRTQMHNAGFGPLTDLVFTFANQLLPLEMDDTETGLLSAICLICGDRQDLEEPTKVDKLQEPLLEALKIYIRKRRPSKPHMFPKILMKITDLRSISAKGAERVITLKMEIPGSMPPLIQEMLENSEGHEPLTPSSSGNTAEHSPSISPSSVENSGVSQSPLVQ
Experimental: (§2) The binding of tazarotene and tazarotenic acid to the retinoic acid receptor (RAR) family receptors (RARα, RARβ, RARγ) was determined as follows.
(§3) All binding assays were performed in a similar fashion. All three receptor subtypes were derived from the expressed receptor type (RARα, RARβ, and RARγ) expressed in Baculovirus. Stock solutions of the compounds were prepared as 10 mM ethanol solutions and serial dilutions carried out into 1:1 DMSO; ethanol. Assay buffers consisted of the following for all six receptor assays: 8% glycerol, 120 mM KCl, 8 mM Tris, 5 mM CHAPS 4 mM DTT and 0.24 mM PMSF, pH-7.4 @ room temperature.
(§4) All receptor binding assays were performed in the same manner. […] The amount of receptor-ligand complex was determined by liquid scintillation counting of hydroxyapitite pellet.
as §1
(§5) The results of ligand binding assay are expressed in Kd numbers. […] Binding data for tazarotenic acid is expressed as the mean and standard deviation. […]

RARγ = target: T3, RARγ (Homo sapiens, UniProt P13631); assay: RARγ receptor binding assay, competition with [3H] retinoic acid; conditions: Baculovirus-expressed receptor; Kd from IC50 by Cheng-Prussof; mean and standard deviation; read-out: receptor affinity (KD), RARγ
T3 construct: made in house
T3 sequence (P13631 1-454): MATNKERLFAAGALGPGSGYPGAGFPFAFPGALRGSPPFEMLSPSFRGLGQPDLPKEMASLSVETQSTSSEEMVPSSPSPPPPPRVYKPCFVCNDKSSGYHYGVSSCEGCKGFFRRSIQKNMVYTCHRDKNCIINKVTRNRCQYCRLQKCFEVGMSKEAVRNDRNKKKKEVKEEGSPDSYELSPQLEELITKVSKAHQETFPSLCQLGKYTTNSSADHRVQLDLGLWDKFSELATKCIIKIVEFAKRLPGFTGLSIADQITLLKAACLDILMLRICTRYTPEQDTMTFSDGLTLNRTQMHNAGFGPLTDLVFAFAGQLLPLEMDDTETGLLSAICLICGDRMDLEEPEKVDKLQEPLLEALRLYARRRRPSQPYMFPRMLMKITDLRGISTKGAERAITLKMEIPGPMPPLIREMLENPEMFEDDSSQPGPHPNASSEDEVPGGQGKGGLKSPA
Experimental: as §2, §3, §4, §1, §5

[3] = Ocular disposition of tazarotene and tazarotenic acid after intraocular and subconjunctival administration of tazarotene; type: in vivo; conditions: albino rabbits
Experimental: General disposition of tazarotene and tazarotenic acid resulting from intraocular and subconjunctival administration of tazarotene was assessed. Albino rabbits were dosed via intraocular injection with 1.25 μg of tazarotene. Injection was made mid-vitreous. After dosing the vitreous, retina and aqueous humor concentrations of tazarotene and tazarotenic acid were determined at 0.5, 1, 2, 4, 8, 12 and 24 hours post dosing.
Tazarotene was also dosed in the subconjunctival space. Three dosage forms were evaluated: the tazarotene aqueous suspension described in Example 2 (50 μl of the solution, 1 mg tazarotene), tazarotene olive oil solution described in Example 3 (50 μl mg of the solution, 1 mg of tazarotene), and the tazarotene poly(lactide-co-glycolide) microsphere suspension described in Example 1. After dosing, the vitreous, retina and aqueous humor concentrations of tazarotene and tazarotenic acid were determined at 2, 8, 24, 48, 96, 168 and 336 hours post dosing (see FIGS. 1-8). […] In Table 1 the mean vitreous concentration refers to average vitreous concentration observed from zero to one hundred sixty-eight hours post dosing. The mean vitreous concentration at each time point was used to calculate the overall vitreous mean concentration over the 168 hours for a given route of administration and dosage form. […]

Row | Structure (SMILES) | effect on vision, retinitis pigmentosa [1] | effect on traction retinal detachment, proliferative vitreal retinopathy [2] | Kd (RARα) | Kd (RARβ) | Kd (RARγ) | maximal vitreous concentration of tazarotenic acid obtainable after direct intraocular implantation ([3]; intraocular tazarotene) | period for which concentrations were maintained at low effective levels ([3]; subconjunctival dosing of tazarotene, ocular tissues)
1 | CCCCCCCCCCCCCCCC(=O)OC/C=C(C)/C=C/C=C(C)/C=C/C1=C(C)CCCC1(C)C [all-trans retinyl palmitate] | Maintenance of vision or a slowing of the progression of vision loss is observed | – | – | – | – | – | –
2 | CCOC(=O)c1ccc(C#Cc2ccc3c(c2)C(C)(C)CCS3)nc1 [tazarotene, ethyl 6-[(4,4-dimethylthiochroman-6-yl)ethynyl]nicotinate] | Maintenance of vision or a slowing of the progression of vision loss is observed | Traction retinal detachment is prevented or the rate of traction retinal detachment is reduced | – | – | – | – | –
3 | CC1(C)CCSc2ccc(C#Cc3ccc(C(=O)O)cn3)cc21 [tazarotenic acid, 4,4-dimethyl-6-[2′-(5″-carboxy-2″-pyridyl)-ethynyl]-thiochroman] | – | – | 901 ± 123 nM | 164 ± 48 nM | 353 ± 37 nM | 10 ng/mL | 336 h
